Converted amounts (≈) assume the structure as drawn. Read-outs that look alike come from different tables or passages of the source.
Key:
Leishmania major = tested on: Leishmania major; set-up: species or system balb/c mice; conditions: mouse, in vivo
[1] = rabbit, in vivo
Experimental: Six healthy New Zealand White rabbits were selected for study. The rabbits' eyes were judged free of irritation prior to the study by examining with a pen light and under UV light after installation of 2% fluorescein stain. A 1% solution of the trioxolane or diperoxide derivative of linalool was prepared in isopropyl myristate. A 0.1 ml portion of this test solution was instilled into the lower conjunctival sac of one eye of each rabbit. The lids were held closed for one second. The opposite eye of each rabbit received 0.1 ml of the isopropyl myristate, as control. […] At 24, 48, and 72 hours post dosing, the eyes were examined with a pen light and re-examined with UV light following fluorescein staining of the cornea.

Penicillium = assay type: cell-based, Penicillium spp.
[2] = tested on: Myeloma cell line (×63 balb/c line); assay type: cell-based, balb/c (mouse)
Pseudomonas [3] = assay type: cell-based, Pseudomonas spp.
Salmonella [4] = assay type: cell-based, Salmonella spp.
EPEC/ETEC [5] = assay type: cell-based, enteropathogenic/enterotoxigenic Escherichia coli
EPEC/ETEC [6] = assay type: cell-based, enteropathogenic/enterotoxigenic Escherichia coli; remark: listed apart in the source
Shigella [7] = assay type: cell-based, Shigella spp.
Salmonella [8] = assay type: cell-based, Salmonella spp.; remark: listed apart in the source
S. aureus [9] = assay type: cell-based, Staphylococcus aureus
Pseudomonas [10] = assay type: cell-based, Pseudomonas spp.; remark: listed apart in the source
Tri. canis = assay type: cell-based, Trichophyton canis
Archromobacter = assay type: cell-based, Achromobacter
Shigella [11] = assay type: cell-based, Shigella spp.; remark: listed apart in the source
S. aureus [12] = assay type: cell-based, Staphylococcus aureus; remark: listed apart in the source
S. epidermidis = assay type: cell-based, Staphylococcus epidermidis
Pseudomonas [13] = assay type: cell-based, Pseudomonas spp.; remark: listed apart in the source
Salmonella [14] = assay type: cell-based, Salmonella spp.; remark: listed apart in the source
EPEC/ETEC [15] = assay type: cell-based, enteropathogenic/enterotoxigenic Escherichia coli; remark: listed apart in the source
[16] = tested on: commonly encountered microorganisms; assay type: cell-based, bacteria and fungi
EPEC/ETEC [17] = assay type: cell-based, enteropathogenic/enterotoxigenic Escherichia coli; remark: listed apart in the source
E. coli = assay type: cell-based
lymphocytes = tested on: lymphocytes; set-up: species or system Balb/c mice; conditions: mouse, in vivo
Leishmania donova = tested on: Leishmania donova; set-up: species or system Balb/c mice; conditions: mouse, in vivo
Tri. violaceum = assay type: cell-based, Trichophyton violaceum
human spermatozoa = assay type: cell-based
Ph. verrucose = assay type: cell-based, Phialophora verrucose
Candida [18] = assay type: cell-based, Candida spp.
Candida [19] = assay type: cell-based, Candida spp.; remark: listed apart in the source
Salmonella [20] = assay type: cell-based, Salmonella spp.; remark: listed apart in the source
Cryptococcus = assay type: cell-based, Cryptoccus spp.
Pseudomonas [21] = assay type: cell-based, Pseudomonas spp.; remark: listed apart in the source
Candida [22] = assay type: cell-based, Candida spp.; remark: listed apart in the source
Shigella [23] = assay type: cell-based, Shigella spp.; remark: listed apart in the source
S. aureus [24] = assay type: cell-based, Staphylococcus aureus; remark: listed apart in the source
C. albicans = assay type: cell-based, Candida albicans
N. gonorrhoea = assay type: cell-based, Neisseria gonorrhoea
Shigella [25] = assay type: cell-based, Shigella spp.; remark: listed apart in the source
S. aureus [26] = assay type: cell-based, Staphylococcus aureus; remark: listed apart in the source
Kiebisella = assay type: cell-based, Klebsiella spp.

For `O.O.O.O.O.O.O.O.O.O=C([O-])[C@@H]1[O][Sb](=[O])([O][Sb]2(=[O])[O][C@H]([C@H](O)CO)[C@H](O)[C@H](C(=O)[O-])[O]2)[O][C@H]([C@H](O)CO)[C@@H]1O.[Na+].[Na+].[Na+]` (some centres unmarked) [Pentostam, reference compound], the “Dead, Day 14” value (Leishmania major; ip) was 1 dead, the “Lesions, Day 0” value (Leishmania major; ip) was “Large lesions” and the “Lesions, Day 14” value (Leishmania major; ip) was “Large lesions breaking”.

In the case of linalool trioxolane, the Ocular irritation [1] is reported as “non-irritant to ocular tissues of the rabbit”.

In the case of `CCC1OOC(CCO)O1` (stereo not drawn) [Trioxolane derivative of cis 3-hexene-1-ol], the MIC (Penicillium) is reported as 310 µg/mL (≈ 2090 µM), the “Time to kill myeloma cell line” value [2] is reported as no more than 48 h and the MIC agar (Pseudomonas [3]) is reported as 7 µg/mL (≈ 47.2 µM). The MIC (Salmonella [4]) was 7 µg/mL (≈ 47.2 µM), the MIC agar (EPEC/ETEC [5]) was 31 µg/mL (≈ 209 µM) and the MBC (EPEC/ETEC [6]) was 1250 µg/mL (≈ 8440 µM). The MIC (Shigella [7]) was 250 µg/mL (≈ 1690 µM), the MIC broth (Salmonella [8]) was 150 µg/mL (≈ 1010 µM) and the MIC agar (S. aureus [9]) was 120 µg/mL (≈ 810 µM). For the same molecule, the MIC broth (Pseudomonas [10]) was 620 µg/mL (≈ 4180 µM), the MIC (Tri. canis) was 150 µg/mL (≈ 1010 µM) and the MIC (Archromobacter) was 60 µg/mL (≈ 405 µM). It also gave an MIC broth (Shigella [11]) of 620 µg/mL (≈ 4180 µM), an MIC broth (S. aureus [12]) of 620 µg/mL (≈ 4180 µM) and an MIC (S. epidermidis) of 25 µg/mL (≈ 169 µM). The “lowest concentration inhibiting at least one isolate” value (“lowest concentration inhibiting” for short) (S. epidermidis) was 0.031 mg/mL, the MBC (Pseudomonas [13]) was 1250 µg/mL (≈ 8440 µM) and the MIC agar (Salmonella [14]) was 7 µg/mL (≈ 47.2 µM). The MIC broth (EPEC/ETEC [15]) was 620 µg/mL (≈ 4180 µM), the “Activity compared with Geraniol trioxolane” value [16] was “more active than Geraniol trioxolane” and the “Activity compared with conventional drugs” value [16] was “more active than conventional drugs”. For the same molecule, the “Effect of water on direct bioactivity” value [16] was “significantly reduces the direct bioactivity”, the MIC (EPEC/ETEC [17]) was 250 µg/mL (≈ 1690 µM) and the MIC (E. coli) was 120 µg/mL (≈ 810 µM). The “New clones of lymphocytes in bone marrow” value (lymphocytes) was “increase in new clones of lymphocytes”, the “Clearing parasites from the viscera” value (Leishmania donova) was “perform better than Pentostam” and the MIC (Tri. violaceum) was 150 µg/mL (≈ 1010 µM). The “Time to kill human spermatozoa” value (human spermatozoa) was no more than 1 min, the MIC (Ph. verrucose) was 150 µg/mL (≈ 1010 µM) and the MIC agar (Candida [18]) was 31 µg/mL (≈ 209 µM). For the same molecule, the “Death, Day 14” value (Leishmania major) was “No death”, the “General health, Day 14” value (Leishmania major) was “Animals healthy and active” and the “Lesions, Day 0” value (Leishmania major) was “Large lesions”. The “Lesions, Day 14” value (Leishmania major) was “Lesions small and dry”, the “Dead, Day 14” value (Leishmania major; ip) was 2 dead and the “Lesions, Day 0” value (Leishmania major; ip) was “Large lesions”. The “Lesions, Day 14” value (Leishmania major; ip) was “Lesions scabbed”, the “Palate involvement, Day 14” value (Leishmania major; ip) was 2 and the MIC broth (Candida [19]) was 310 µg/mL (≈ 2090 µM). For the same molecule, the MBC (Salmonella [20]) was 2500 µg/mL (≈ 16900 µM), the MIC (Cryptococcus) was 15 µg/mL (≈ 101 µM) and the MIC (Pseudomonas [21]) was 7 µg/mL (≈ 47.2 µM). It also gave an MBC (Candida [22]) of 1250 µg/mL (≈ 8440 µM), an MIC agar (Shigella [23]) of 7 µg/mL (≈ 47.2 µM) and an MBC (S. aureus [24]) of 1250 µg/mL (≈ 8440 µM). For the same molecule, the MIC (C. albicans) was 31 µg/mL (≈ 209 µM), the MIC (N. gonorrhoea) was 3.5 µg/mL (≈ 23.6 µM) and the “lowest concentration inhibiting” value (N. gonorrhoea) was 0.0019 mg/mL. For the same molecule, the MBC (Shigella [25]) was 1250 µg/mL (≈ 8440 µM), the MIC (S. aureus [26]) was 250 µg/mL (≈ 1690 µM) and the “lowest concentration inhibiting” value (S. aureus [26]) was 0.031 mg/mL. It also gave an MIC (Kiebisella) of 7 µg/mL (≈ 47.2 µM).

Source: patent US5270344A, “Method of treating a systemic disorder using trioxolane and diperoxide compounds” (priority 1992, dated 1993)
